Laboratory results published in patent US10314823B2, “Substituted 1,2-dihydro-3H-pyrrolo[1,2-c]imidazol-3-one antibacterial compounds” (IDORSIA PHARMACEUTICALS LTD, priority 2015, dated 2019).
In brackets after ≈: the same amount, converted by molar mass.

Columns and labels:
Assay in all cases: Bacterial growth minimal inhibitory concentration (CLSI broth microdilution)
Format in all cases: cell-based
P. aeruginosa ATCC27853 = conditions: Pseudomonas aeruginosa, ATCC27853; quinolone-sensitive strain; cation-adjusted Mueller-Hinton Broth
Procedure, shortened: (§1)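 Growth inhibition is assessed by broth microdilution in cation-adjusted Mueller-Hinton broth, with MIC values given in mg/L.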

K. pneumoniae A-651 = conditions: Klebsiella pneumoniae, A651; multiply resistant strain (in particular quinolone-resistant); cation-adjusted Mueller-Hinton Broth
Procedure, shortened: as §1

E. coli ATCC25922 = conditions: Escherichia coli, ATCC25922; quinolone-sensitive strain; cation-adjusted Mueller-Hinton Broth
Procedure, shortened: as §1

MIC (P. aeruginosa ATCC27853)	MIC (K. pneumoniae A-651)	MIC (E. coli ATCC25922)	SMILES
1 µg/mL (≈ 2.12 µM)	0.25 µg/mL (≈ 0.529 µM)	0.125 µg/mL (≈ 0.265 µM)	C[C@@](CCN1Cc2cc(C#CC#CC3CN(CC4CC4)C3)cn2C1=O)(C(=O)NO)S(C)(=O)=O [Example 55, (2R)-4-(6-((1-(cyclopropylmethyl)azetidin-3-yl)buta-1,3-diyn-1-yl)-3-oxo-1H-pyrrolo[1,2-c]imidazol-2(3H)-yl)-N-hydroxy-2-methyl-2-(methylsulfonyl)butanamide]
0.063 µg/mL (≈ 0.137 µM)	0.5 µg/mL (≈ 1.09 µM)	0.125 µg/mL (≈ 0.273 µM)	C[C@@](CCN1Cc2cc(C#CC#CC3CN(C4CC4)C3)cn2C1=O)(C(=O)NO)S(C)(=O)=O [Example 57, (2R)-4-(6-((1-cyclopropylazetidin-3-yl)buta-1,3-diyn-1-yl)-3-oxo-1H-pyrrolo[1,2-c]imidazol-2(3H)-yl)-N-hydroxy-2-methyl-2-(methylsulfonyl)butanamide]
0.5 µg/mL (≈ 1.08 µM)	1 µg/mL (≈ 2.16 µM)	0.5 µg/mL (≈ 1.08 µM)	CN1C[C@H](C#CC#Cc2cc3n(c2)C(=O)N(CC[C@](C)(C(=O)NO)S(C)(=O)=O)C3)[C@H]1CO [Example 97, (2R)—N-hydroxy-4-(6-(((2S,3S)-2-(hydroxymethyl)-1-methylazetidin-3-yl)buta-1,3-diyn-1-yl)-3-oxo-1H-pyrrolo[1,2-c]imidazol-2(3H)-yl)-2-methyl-2-(methylsulfonyl)butanamide]
1 µg/mL (≈ 1.99 µM)	0.25 µg/mL (≈ 0.497 µM)	0.25 µg/mL (≈ 0.497 µM)	C[C@@](CCN1Cc2cc(C#CC#CC3CN(C4CCOCC4)C3)cn2C1=O)(C(=O)NO)S(C)(=O)=O [Example 74, (2R)—N-hydroxy-2-methyl-2-(methylsulfonyl)-4-(3-oxo-6-((1-(tetrahydro-2H-pyran-4-yl)azetidin-3-yl)buta-1,3-diyn-1-yl)-1H-pyrrolo[1,2-c]imidazol-2(3H)-yl)butanamide]
2 µg/mL (≈ 3.76 µM)	2 µg/mL (≈ 3.76 µM)	0.5 µg/mL (≈ 0.939 µM)	C[C@@](CCN1Cc2cc(-c3ccc(C#CC4CN(CCO)C4)cc3F)cn2C1=O)(C(=O)NO)S(C)(=O)=O [Example 88, (2R)-4-(6-(2-fluoro-4-((1-(2-hydroxyethyl)azetidin-3-yl)ethynyl)phenyl)-3-oxo-1H-pyrrolo[1,2-c]imidazol-2(3H)-yl)-N-hydroxy-2-methyl-2-(methylsulfonyl)butanamide]
2 µg/mL (≈ 3.8 µM)	2 µg/mL (≈ 3.8 µM)	2 µg/mL (≈ 3.8 µM)	C[C@@](CCN1Cc2cc(C#Cc3ccc(CN4CC5C(N)C5C4)cc3)cn2C1=O)(C(=O)NO)S(C)(=O)=O (stereo partly drawn) [Example 4, (2R)-4-(6-((4-((6-amino-3-azabicyclo[3.1.0]hexan-3-yl)methyl)phenyl)ethynyl)-3-oxo-1H-pyrrolo[1,2-c]imidazol-2(3H)-yl)-N-hydroxy-2-methyl-2-(methylsulfonyl)butanamide]
2 µg/mL	8 µg/mL	1 µg/mL	COCCN(C)CC(O)c1ccc(C#Cc2cc3n(c2)C(=O)N(CC[C@](C)(C(=O)NO)S(C)(=O)=O)C3)cc1 (mixture of isomers) [Example 28, (2R)—N-hydroxy-4-(6-((RS)-(4-(1-hydroxy-2-((2-methoxyethyl)(methyl)amino)ethyl)phenyl)ethynyl)-3-oxo-1H-pyrrolo[1,2-c]imidazol-2(3H)-yl)-2-methyl-2-(methylsulfonyl)butanamide]
4 µg/mL (≈ 7.36 µM)	8 µg/mL (≈ 14.7 µM)	8 µg/mL (≈ 14.7 µM)	C[C@@](CCN1Cc2cc(C#Cc3ccc(CNC(=O)OC4CNC4)cc3)cn2C1=O)(C(=O)NO)S(C)(=O)=O [Example 26, azetidin-3-yl (3R)-(4-((2-(4-(hydroxyamino)-3-methyl-3-(methylsulfonyl)-4-oxobutyl)-3-oxo-2,3-dihydro-1H-pyrrolo[1,2-c]imidazol-6-yl)ethynyl)benzyl)carbamate]
1 µg/mL (≈ 1.99 µM)	0.125 µg/mL (≈ 0.249 µM)	< 0.063 µg/mL	C[C@@](CCN1Cc2cc(C#Cc3ccc(CN4CC(F)C4)cc3)cn2C1=O)(C(=O)NO)S(C)(=O)=O [Example 49, (2R)-4-(6-((4-((3-fluoroazetidin-1-yl)methyl)phenyl)ethynyl)-3-oxo-1H-pyrrolo[1,2-c]imidazol-2(3H)-yl)-N-hydroxy-2-methyl-2-(methylsulfonyl)butanamide]
2 µg/mL	0.25 µg/mL	0.125 µg/mL	C[C@@](CCN1Cc2cc(C#CC#CC3(F)CCN(C4CC4)C3)cn2C1=O)(C(=O)NO)S(C)(=O)=O (mixture of isomers) [Example 76, (2R)-4-(6-(((3RS)-1-cyclopropyl-3-fluoropyrrolidin-3-yl)buta-1,3-diyn-1-yl)-3-oxo-1H-pyrrolo[1,2-c]imidazol-2(3H)-yl)-N-hydroxy-2-methyl-2-(methylsulfonyl)butanamide]
0.5 µg/mL (≈ 1.08 µM)	0.5 µg/mL (≈ 1.08 µM)	0.5 µg/mL (≈ 1.08 µM)	C[C@@](CCN1Cc2cc(C#CC#CC3CN(CCO)C3)cn2C1=O)(C(=O)NO)S(C)(=O)=O [Example 41, (2R)—N-hydroxy-4-(6-((1-(2-hydroxyethyl)azetidin-3-yl)buta-1,3-diyn-1-yl)-3-oxo-1H-pyrrolo[1,2-c]imidazol-2(3H)-yl)-2-methyl-2-(methylsulfonyl)butanamide]
2 µg/mL (≈ 4.2 µM)	2 µg/mL (≈ 4.2 µM)	2 µg/mL (≈ 4.2 µM)	C[C@@](CCN1Cc2cc(C#CC#CCN3CCC(O)CC3)cn2C1=O)(C(=O)NO)S(C)(=O)=O [Example 40, (2R)—N-hydroxy-4-(6-(5-(4-hydroxypiperidin-1-yl)penta-1,3-diyn-1-yl)-3-oxo-1H-pyrrolo[1,2-c]imidazol-2(3H)-yl)-2-methyl-2-(methylsulfonyl)butanamide]
1 µg/mL (≈ 2.05 µM)	2 µg/mL (≈ 4.09 µM)	0.5 µg/mL (≈ 1.02 µM)	C[C@@](CCN1Cc2cc(C#Cc3ccc(C4(F)CNC4)cc3)cn2C1=O)(C(=O)NO)S(C)(=O)=O [Example 15, (2R)-4-(6-((4-(3-fluoroazetidin-3-yl)phenyl)ethynyl)-3-oxo-1H-pyrrolo[1,2-c]imidazol-2(3H)-yl)-N-hydroxy-2-methyl-2-(methylsulfonyl)butanamide]
1 µg/mL (≈ 1.89 µM)	4 µg/mL (≈ 7.57 µM)	2 µg/mL (≈ 3.78 µM)	CC(=O)N1CC(O)(c2ccc(C#Cc3cc4n(c3)C(=O)N(CC[C@](C)(C(=O)NO)S(C)(=O)=O)C4)cc2)C1 [Example 6, (2R)-4-(6-((4-(1-acetyl-3-hydroxyazetidin-3-yl)phenyl)ethynyl)-3-oxo-1H-pyrrolo[1,2-c]imidazol-2(3H)-yl)-N-hydroxy-2-methyl-2-(methylsulfonyl)butanamide]
2 µg/mL	0.5 µg/mL	0.25 µg/mL	CN1CC[C@@](F)(C#CC#Cc2cc3n(c2)C(=O)N(CC[C@](C)(C(=O)NO)S(C)(=O)=O)C3)C1.O=C(O)C(F)(F)F (single isomer, unassigned) [Example 71]
1 µg/mL (≈ 1.84 µM)	0.5 µg/mL (≈ 0.918 µM)	0.25 µg/mL (≈ 0.459 µM)	C[C@@](CCN1Cc2cc(C#Cc3ccc(C4(F)CN(C5COC5)C4)cc3)cn2C1=O)(C(=O)NO)S(C)(=O)=O [Example 16, (2R)-4-(6-((4-(3-fluoro-1-(oxetan-3-yl)azetidin-3-yl)phenyl)ethynyl)-3-oxo-1H-pyrrolo[1,2-c]imidazol-2(3H)-yl)-N-hydroxy-2-methyl-2-(methylsulfonyl)butanamide]
1 µg/mL	1 µg/mL	0.5 µg/mL	C[C@@](CCN1Cc2cc(C#CC#CC3(F)CCN(CCO)C3)cn2C1=O)(C(=O)NO)S(C)(=O)=O (mixture of isomers) [Example 77, (2R)-4-(6-(((3RS)-3-fluoro-1-(2-hydroxyethyl)pyrrolidin-3-yl)buta-1,3-diyn-1-yl)-3-oxo-1H-pyrrolo[1,2-c]imidazol-2(3H)-yl)-N-hydroxy-2-methyl-2-(methylsulfonyl)butanamide]
1 µg/mL (≈ 2.07 µM)	0.25 µg/mL (≈ 0.518 µM)	0.063 µg/mL (≈ 0.131 µM)	C[C@@](CCN1Cc2cc(C#CC#CC3CN(CC(F)F)C3)cn2C1=O)(C(=O)NO)S(C)(=O)=O [Example 68, (2R)-4-(6-((1-(2,2-difluoroethyl)azetidin-3-yl)buta-1,3-diyn-1-yl)-3-oxo-1H-pyrrolo[1,2-c]imidazol-2(3H)-yl)-N-hydroxy-2-methyl-2-(methylsulfonyl)butanamide]
4 µg/mL (≈ 7.71 µM)	4 µg/mL (≈ 7.71 µM)	4 µg/mL (≈ 7.71 µM)	C[C@@](CCN1Cc2cc(C#CC#C[C@H]3C[C@H](CO)N(C4COC4)C3)cn2C1=O)(C(=O)NO)S(C)(=O)=O [Example 100, (2R)—N-hydroxy-4-(6-(((3R,5R)-5-(hydroxymethyl)-1-(oxetan-3-yl)pyrrolidin-3-yl)buta-1,3-diyn-1-yl)-3-oxo-1H-pyrrolo[1,2-c]imidazol-2(3H)-yl)-2-methyl-2-(methylsulfonyl)butanamide]
2 µg/mL (≈ 3.98 µM)	0.5 µg/mL (≈ 0.995 µM)	0.25 µg/mL (≈ 0.497 µM)	C[C@@](CCN1Cc2cc(C#CC#C[C@@H]3C[C@H]3CN3CCOCC3)cn2C1=O)(C(=O)NO)S(C)(=O)=O [Example 29, (2R)—N-hydroxy-2-methyl-2-(methylsulfonyl)-4-(6-(((1R,2R)-2-(morpholinomethyl)cyclopropyl)buta-1,3-diyn-1-yl)-3-oxo-1H-pyrrolo[1,2-c]imidazol-2(3H)-yl)butanamide]
1 µg/mL	1 µg/mL	1 µg/mL	C[C@@](CCN1Cc2cc(C#CC#CC3(F)CCNC3)cn2C1=O)(C(=O)NO)S(C)(=O)=O (mixture of isomers) [Example 78, (2R)-4-(6-(((3RS)-3-fluoropyrrolidin-3-yl)buta-1,3-diyn-1-yl)-3-oxo-1H-pyrrolo[1,2-c]imidazol-2(3H)-yl)-N-hydroxy-2-methyl-2-(methylsulfonyl)butanamide]
4 µg/mL (≈ 7.91 µM)	4 µg/mL (≈ 7.91 µM)	8 µg/mL (≈ 15.8 µM)	CN1CC(OC(=O)NCC#CC#Cc2cc3n(c2)C(=O)N(CC[C@](C)(C(=O)NO)S(C)(=O)=O)C3)C1 [Example 39, 1-methylazetidin-3-yl (3R)-(5-(2-(4-(hydroxyamino)-3-methyl-3-(methylsulfonyl)-4-oxobutyl)-3-oxo-2,3-dihydro-1H-pyrrolo[1,2-c]imidazol-6-yl)penta-2,4-diyn-1-yl)carbamate]
